What was measured:
normal dogs = test: Gastric emptying in normal dogs; format: in vivo, beagle dogs; settings: lidamidine 0.63 mg/kg subcutaneously 60 minutes before the meal, GLP-1 MMB 0.1 mg/kg intravenously 15 minutes before the meal
Description: GLP-1 MMB delays gastric emptying in normal dogs. A gastric cannula was surgically implanted into female beagle dogs (10-15 kg) under general anesthesia and allowed-to recover for at least 2 weeks. Dogs were fasted for 24 hours after which water was freely available. The gastric cannula was opened and gastric juice and food remnants were removed with 40-50 ml of lukewarm water. Groups of six dogs were dosed subcutaneously with lidamidine, an alpha2 agonist (0.63 mg/kg), 60 minutes before the meal, a positive control for delay of gastric emptying. Dogs dosed with the vehicle control or GLP-1 MMB (0.1 mg/kg) were dosed intravenously in the cephalic vein 15 minutes before the meal. Five minutes before the meal, the gastric cannula was opened to determine the amount of fluid present in stomach for baseline value and fluid was promptly reintroduced. […] Glucose concentrations were evaluated for collected samples and used to determine the absolute amount of glucose remaining in the stomach at each time point. The percentage of glucose retained in the stomach was determined from the starting value and the concentration of glucose at each time point and plotted as a function of time. The time at which 50% of the gastric contents were retained was determined by fitting of the curves to a single exponential.

[1] = administered subcutaneously; cited from earlier work
diet induced obese mice = test: Oral glucose tolerance test in diet induced obese mice; format: in vivo
Description: GLP-1 MMB lowers blood glucose following an oral glucose tolerance test (OGTT) in diet induced obese mice. To develop a murine model of diet induced obesity, mice were maintained on a high fat diet for at least 27 weeks. Mice became obese and were determined to be diabetic when fasting blood glucose values exceeded 120 mg/dl. To evaluate the effect of GLP-1 MMB therapy on postprandial blood glucose levels, diet induced obese mice were fasted overnight and dosed subcutaneously with 0.02, 0.2, or 2 mg/kg GLP-1 MMB or vehicle control. Six hours after dosing, mice were given a 1.5 mg/g gastric gavage of glucose. Blood glucose levels were determined prior to MMB dosing, at t =0, 15, 30, 60, 90, 120, 150, and 180 minutes using tail vein blood.

control HEK293 cells = test: FACS binding assay, control HEK293 cells; settings: flow cytometry
diabetic db/db mice [2] = test: HbA1c after chronic dosing to diabetic db/db mice; format: in vivo; settings: 1 mg/kg daily for six weeks
Description: Effects of GLP-1 MMB on reducing HbAlc after chronic dosing to diabetic mice. As in Examples 11 and 12, ten-week old diabetic db/db mice were dosed daily with vehicle or GLP-1 MMB (1 mg/kg) for six weeks. Before and after six-weeks of dosing, whole blood samples were taken and analyzed for percent HbA1c.

[3] = system: normal cynomolgus monkeys; test: Oral glucose tolerance test in normal cynomolgus monkeys; format: in vivo; settings: single dose 1 mg/kg
Description: Effects of GLP-1 MMB on an oral glucose tolerance test in normal cynomolgus monkeys. An oral glucose tolerance test (OGTT) was done in normal cynomolgus monkeys prior to and six days after a single dose of the GLP-1 MMB (1 mg/kg). Briefly, at t=0, monkeys were given an oral gavage of 2.0 mg/g glucose, and blood glucose was measured at various times.

diabetic db/db mice [4] = test: Oral glucose tolerance test after chronic dosing to diabetic db/db mice; format: in vivo; settings: 1 mg/kg daily
Description: Effects of GLP-1 MMB on oral glucose tolerance test after chronic dosing to diabetic mice. As in Example 11, ten-week old diabetic db/db mice were dosed daily with vehicle or GLP-1 MMB (1 mg/kg) for six weeks. After 40 days of dosing, the mice were given an oral glucose tolerance test. Briefly, at t=0, mice were given an oral gavage of 1.0 mg/g glucose, and blood glucose was measured at various times.

diabetic db/db mice [5] = test: Fasting blood glucose during chronic dosing to diabetic db/db mice; format: in vivo; settings: 1 mg/kg subcutaneously daily for six weeks
Description: Effects of GLP-1 MMB on fasting blood glucose during chronic dosing to diabetic mice. Ten-week old diabetic db/db mice were subcutaneously dosed daily with vehicle or GLP-1 MMB (1 mg/kg) for six weeks. Fasting blood glucose was measured twice per week during the course of the study.

diabetic mice (db/db) = test: Insulin staining in islets of diabetic mice (db/db) after a single dose; format: in vivo; settings: single subcutaneous dose 1.5 mg/kg, four weeks later
Description: Effects of GLP-1 MMB on insulin staining in islets of diabetic mice (db/db) after a single dose. Twelve-week old diabetic mice (db/db) were treated with a single subcutaneous dose of the GLP-1 MMB (1.5 mg/kg), and the pancreata were harvested four weeks later. The pancreata were sectioned and stained for the presence of insulin.

[6] = Human serum stability assay; format: in vitro ADME; settings: 30 nM, 37° C., GLP-1 Active ELISA
Description: Human Serum stability assay. The stability of the GLP-1 MMB in serum was also measured to ensure that other serum proteases were not able to cleave and inactivate the GLP-1 MMB. Briefly, GLP1 peptide or the GLP1 MMB (30 nM) was incubated in human serum at 37° C. After various times, the reactions were quenched with a DPP-IV inhibitor (100 μM, Linco), and the samples were analyzed using the GLP-1 Active ELISA from Linco.

DPP-IV = target: T1, DPP-IV (Homo sapiens, UniProt P27487); test: DPP-IV cleavage assay; format: in vitro ADME; settings: 1.2 nM, DPP-IV 1 μg/mL, room temperature, 0-40 minutes
T1 construct: purchased R&D Systems
Description: DPP-IV cleavage assay. Since GLP-1 is rapidly inactivated by DPP-IV, an in vitro assay was established to quantitate intact (i.e. uncleaved) GLP-1 MMB. Briefly, GLP-1 MMB or peptide (1.2 nM) was incubated at room temperature with DPP-IV (1 μg/mL, R&D Systems). After various times (0, 5, 10, 15, 20, 30, 40 minutes), a DPP-IV inhibitor (100 μM, Linco) was added to quench the reaction. The amount of intact GLP-1 MMB or peptide was measured using the GLP-1 Active ELISA (Linco) and the GLP-1 MMB or peptides for the respective standard curves.

db/db mice = test: Intraperitoneal glucose tolerance test (IPGTT) in db/db mice; format: in vivo
Description: GLP-1 MMB lowers blood glucose in an intraperitoneal glucose tolerance test (IPGTT) in db/db mice. Male db/db mice of approximately 13-15 weeks of age were randomized into treatment groups of six mice based on fasting blood glucose levels. Mice were dosed with either 0.02 mg/kg or 0.1 mg/kg of GLP- I MMB or 0.1 mg/kg of negative control MMB six hours prior to the glucose tolerance test. Five minutes before the glucose tolerance test, a glucose measurement was taken with a hand held glucometer from tail vein blood. Mice were then dosed intraperitoneally with 1 mg/g of D-glucose and blood glucose levels were monitored at 10 min,20 min,30 min, 60 min, 90 min, 120 min, 150 min, and 180 min. […] Additional groups of animals treated in the same manner were sacrificed for measurement of insulin levels at t=10 minutes.

GLP-1R = target: T2, GLP-1R (Homo sapiens, UniProt P43220); test: FACS binding assay, HEK293 cells over-expressing the GLP-1R; settings: 20 nM, 2 hours at 4° C., flow cytometry
T2 construct: expressed in transfected cells; host or cells: HEK293
Description: FACS Binding Assay. The activity of GLP-1 mimetibody was tested in an in vitro FACS binding assay. To determine whether the GLP-1 MMB binds the GLP-1R, HEK293 cells (1×10^6 cells) over-expressing the GLP-1R were incubated with GLP-1 MMB (20 nM) for 2 hours at 4° C. The cells were washed, and a fluorescently labeled secondary […] detection antibody (1 μg/mL goat anti-human IgG, Fc gamma specific) was added for 30 minutes at 4° C. The fluorescence intensity of the cells was monitored via flow cytometry.

diabetic db/db mice [7] = test: Oral glucose tolerance test in diabetic db/db mice, single dose; format: in vivo; settings: subcutaneous 0.02 to 2 mg/kg, all doses tested, 1.0 mg/g glucose
Description: Effects of GLP-1 MMB during an oral glucose tolerance test in diabetic mice. Eight-week old diabetic db/db mice were fasted for 6 hours prior to a subcutaneous injection of the GLP-1 MMB (0.02 to 2 mg/kg). Following dosing, mice were fasted for an additional six hours and a baseline fasting blood glucose was measured. At t=0, mice were given an oral gavage of 1.0 mg/g glucose, and blood glucose was measured at various times.

[8] = system: patients with type 2 diabetes; settings: type 2 diabetic patients, cited from earlier work
RINm cells = test: Insulin secretion in RINm cells (ELISA); format: cell-based; settings: peptides 0-5 nM, mimetibodies 5 or 50 nM
Description: GLP-1 MMB causes insulin secretion in RINm cells. To test the effect of GLP-1 MMB in insulin secretion, RINm cells were treated with increasing concentrations of GLP-1 (7-36) peptide (0-5 nM), exendin-4 peptide (0-5 nM), or various GLP-1 mimetibodies (5 or 50 nM) and the amount of insulin secreted was measured via ELISA. All GLP-1 MMBs tested had activities in stimulating insulin secretion in RINm cells (FIG. 6).

T2 sequence (P43220 24-463, species assumed): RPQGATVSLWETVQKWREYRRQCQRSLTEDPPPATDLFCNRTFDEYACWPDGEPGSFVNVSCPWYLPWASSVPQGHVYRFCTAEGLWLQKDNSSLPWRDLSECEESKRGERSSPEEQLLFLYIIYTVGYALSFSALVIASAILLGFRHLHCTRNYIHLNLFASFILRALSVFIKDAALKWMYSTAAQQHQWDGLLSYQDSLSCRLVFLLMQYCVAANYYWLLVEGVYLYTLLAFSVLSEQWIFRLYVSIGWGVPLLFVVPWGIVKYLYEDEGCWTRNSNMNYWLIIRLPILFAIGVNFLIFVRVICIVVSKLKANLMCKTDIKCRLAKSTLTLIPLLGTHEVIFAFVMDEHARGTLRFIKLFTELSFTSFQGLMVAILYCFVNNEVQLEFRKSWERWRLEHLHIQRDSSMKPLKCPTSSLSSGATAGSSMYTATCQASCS
T1 sequence (P27487 whole entry, species assumed): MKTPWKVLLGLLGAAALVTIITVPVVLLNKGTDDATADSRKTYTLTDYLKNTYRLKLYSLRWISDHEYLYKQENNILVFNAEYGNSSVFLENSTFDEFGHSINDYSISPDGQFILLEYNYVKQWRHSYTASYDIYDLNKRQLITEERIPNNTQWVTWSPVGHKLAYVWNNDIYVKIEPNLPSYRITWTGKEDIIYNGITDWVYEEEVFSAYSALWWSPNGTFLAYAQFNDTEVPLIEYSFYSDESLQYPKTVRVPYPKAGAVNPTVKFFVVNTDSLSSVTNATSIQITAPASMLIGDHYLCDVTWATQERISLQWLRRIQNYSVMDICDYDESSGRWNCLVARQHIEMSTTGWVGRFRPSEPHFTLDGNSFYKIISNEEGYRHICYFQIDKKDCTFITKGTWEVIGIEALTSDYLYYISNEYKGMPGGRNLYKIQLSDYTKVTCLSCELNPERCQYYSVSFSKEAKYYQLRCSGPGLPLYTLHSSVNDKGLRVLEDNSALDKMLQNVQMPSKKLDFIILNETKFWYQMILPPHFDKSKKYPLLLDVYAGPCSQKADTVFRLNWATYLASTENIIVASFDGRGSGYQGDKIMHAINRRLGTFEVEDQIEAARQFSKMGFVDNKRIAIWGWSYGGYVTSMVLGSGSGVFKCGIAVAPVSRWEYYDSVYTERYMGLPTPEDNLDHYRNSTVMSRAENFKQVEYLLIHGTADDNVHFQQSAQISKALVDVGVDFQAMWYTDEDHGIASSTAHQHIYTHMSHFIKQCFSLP

CN=C(N)NC(=O)Nc1c(C)cccc1C [lidamidine, reference compound]
time in which 50% of the gastric contents were emptied (normal dogs): 30.60 ± 6.47 min

GLP-1 (7-36) amide: GLP-1 (7-36) amide
time action [1]: about 50 minutes

GLP-1 MMB: GLP-1 mimetibody construct (SEQ ID NO:2): GLP-1 peptide (7-36), flexible linker, J region, IgG1 hinge, CH2 and CH3
glucose areas under the curve between t=0 and t=180 (diet induced obese mice; all doses): significant lowering
fasting blood glucose values at t=0 and all subsequent time points (diet induced obese mice; subcutaneous 0.02, 0.2, or 2 mg/kg, six hours before 1.5 mg/g glucose): dose dependent decrease
binding to control HEK293 cells (control HEK293 cells): does not bind
increase of HbA1C during the six-week period (diabetic db/db mice [2]): 109%
insulin levels in OGTT six days after dosing [3]: significantly increased
blood glucose levels in OGTT six days after dosing ([3]; 2.0 mg/g glucose): significantly reduced
glucose excursion during an oral glucose tolerance test after 40 days of dosing (diabetic db/db mice [4]): effective in lowering the glucose excursion
time in which 50% of the gastric contents were emptied (normal dogs): 59.23 ± 14.46 min
difference in fasting blood glucose, control vs treated, by six weeks (diabetic db/db mice [5]): more than 200 mg/dL
fasting blood glucose by six weeks (diabetic db/db mice [5]): 221 mg/dL
insulin staining in pancreata relative to control animals (diabetic mice (db/db)): significantly more insulin staining
stability in human serum [6]: stable in human serum for 24 hours
resistance to cleavage by DPP-IV relative to the GLP-1 peptide (DPP-IV): significantly more resistant
amount of insulin released at t=10 minutes (db/db mice; 0.02 mg/kg or 0.1 mg/kg): dose dependent increase
blood glucose levels over the full time course of IPGTT (db/db mice; 0.02 mg/kg or 0.1 mg/kg six hours prior, 1 mg/g D-glucose): significant lower
binding to HEK293 cells over-expressing the GLP-1R (GLP-1R): binds
glucose excursion during an oral glucose tolerance test (diabetic db/db mice [7]): effective in lowering the glucose excursion

GLP-1: Glucagon like peptide-1 given as six-week infusion in the clinic (HAEGTFTSDVSSYLEGQAAKEFIAWLVKGRG)
fasting and 8-hour mean plasma glucose levels ([8]; six-week infusion): lowered
β-cell function [8]: improvement in β-cell function

exendin-4 peptide: exendin-4 peptide, comparator in insulin secretion assay
insulin secretion in RINm cells (RINm cells): stimulates insulin release

Source: US20070135338A1, “Human GLP-1 mimetibodies, compositions, methods and uses” (priority 2004, published 2007)
